# Laboratory results: patent US20040097463A1, “Use of asiatic acid or asiaticoside for treatment of cancer” (priority 2000, published 2004)
# Read-outs that look alike come from different tables or passages of the source.
# Tests used:
# [1] = MTT dye reduction cytotoxicity test, new born foreskin fibroblast cells; format: cell-based, human; conditions: human
# Protocol: (§1) Taxol is a commercially available chemotherapeutic predominantly used in the treatment of breast cancer, lung cancer and ovarian cancer. The experiments were performed on human foreskin fibroblast cells as well as established tumor cell lines. The percentage cytotoxicity was measured by the MTT dye reduction test, which requires the NADPH dehydrogenase enzyme of the mitochondria in live cells (1).
# [2] = system: New Born Foreskin Fibroblast cells; assay: as above; format: cell-based, human
# Protocol: as §1
# [3] = system: Squamous carcinoma cells of SCC15; assay: MTT dye reduction cytotoxicity test, SCC15; format: cell-based; conditions: for cytotoxicity at 2.5 µg/mL / cytotoxicity at 5 µg/mL / cytotoxicity at 10 µg/mL / cytotoxicity at 20 µg/mL / cytotoxicity at 25 µg/mL: Homo sapiens
# Protocol: as §1
# [4] = system: Squamous carcinoma cells of SCC4; assay: MTT dye reduction cytotoxicity test, SCC4; format: cell-based; conditions: Homo sapiens
# Protocol: as §1
# [5] = MTT dye reduction cytotoxicity test, OKF6; format: cell-based; conditions: human
# Protocol: as §1
# [6] = system: SK-BR3 breast cancer cell line; assay: MTT dye reduction cytotoxicity test, SK-BR3; format: cell-based; conditions: Homo sapiens
# Protocol: as §1
# [7] = system: HeLa cells; assay: Apoptosis by DAPI staining of the nuclei in HeLa cells; format: cell-based; conditions: cytotoxic concentrations
# Protocol: HeLa cells were treated with asiatic acid at cytotoxic concentrations and apoptosis of the cells was measured by DAPI staining of the nuclei (2).
# [8] = MTT dye reduction cytotoxicity test, OKF6; format: cell-based; conditions: human, OKF6 cells (SV40-transformed normal epithelial cell line)
smiles,measurement,setting,value
"C[C@H]1[C@H](C)CC[C@]2(C(=O)O)CC[C@]3(C)C(=CC[C@@H]4[C@@]5(C)C[C@@H](O)[C@H](O)[C@@](C)(CO)[C@@H]5CC[C@]43C)[C@H]12 [Asiatic Acid, asiatic acid]",cytotoxicity at 0.8 μg/ml,[1],30%
same,cytotoxicity at 6.25 μg/ml,[1],30%
same,cytotoxicity at 12.5 μg/ml,[1],80%
same,cytotoxicity at 25 μg/ml,[1],84%
same,cytotoxic effect on human foreskin fibroblast cells in culture,[2],dose-dependent
same,cytotoxicity to squamous carcinoma cells compared with solid tumor cell line,[3],more potent cytotoxicity
same,cytotoxicity at 2.5 µg/mL,"[3]; SCC-15, read-out: % cytotox",16%
same,cytotoxicity at 5 µg/mL,"[3]; SCC-15, read-out: % cytotox",20%
same,cytotoxicity at 10 µg/mL,"[3]; SCC-15, read-out: % cytotox",88%
same,cytotoxicity at 20 µg/mL,"[3]; SCC-15, read-out: % cytotox",86%
same,cytotoxicity at 25 µg/mL,"[3]; SCC-15, read-out: % cytotox",90%
same,cytotoxicity at 5 µg/mL,"[4]; SCC-4, read-out: % cytotox",75%
same,cytotoxicity at 10 µg/mL,"[4]; SCC-4, read-out: % cytotox",75%
same,cytotoxicity at 20 µg/mL,"[4]; SCC-4, read-out: % cytotox",80%
same,cytotoxicity at 40 µg/mL,"[4]; SCC-4, read-out: % cytotox",70%
same,cytotoxicity at 50 µg/mL,"[4]; SCC-4, read-out: % cytotox",75%
same,cytotoxicity at 2.5 μg/ml,[5],5%
same,cytotoxicity at 5 μg/ml,[5],23%
same,cytotoxicity at 10 μg/ml,[5],88%
same,cytotoxicity at 20 μg/ml,[5],92%
same,cytotoxicity at 25 μg/ml,[5],92%
same,cytotoxicity at 0.8 µg/mL,"[6]; SK-BR-3, read-out: % cytotox",0%
same,cytotoxicity at 6.2 µg/mL,"[6]; SK-BR-3, read-out: % cytotox",0%
same,cytotoxicity at 12.5 µg/mL,"[6]; SK-BR-3, read-out: % cytotox",23%
same,cytotoxicity at 25 µg/mL,"[6]; SK-BR-3, read-out: % cytotox",80%
same,apoptosis of the cells measured by DAPI staining of the nuclei,[7],inducing apoptotic cell death
"CC(=O)O[C@H]1C(=O)[C@@]2(C)[C@H]([C@H](OC(=O)c3ccccc3)[C@]3(O)C[C@H](OC(=O)[C@H](O)[C@@H](NC(=O)c4ccccc4)c4ccccc4)C(C)=C1C3(C)C)[C@]1(OC(C)=O)CO[C@@H]1C[C@@H]2O [Taxol, reference compound]",cytotoxicity at 0.8 μg/ml,"[1]; New Born Foreskin Fibroblast cells, 0.8 μg/ml, read-out: % cytotox",40%
same,cytotoxicity at 6.25 μg/ml,"[1]; New Born Foreskin Fibroblast cells, 6.25 μg/ml, read-out: % cytotox",40%
same,cytotoxicity at 12.5 μg/ml,"[1]; New Born Foreskin Fibroblast cells, 12.5 μg/ml, read-out: % cytotox",50%
same,cytotoxicity at 25 μg/ml,"[1]; New Born Foreskin Fibroblast cells, 25 μg/ml, read-out: % cytotox",55%
same,cytotoxicity at 2.5 µg/mL,"[3]; SCC-15, SCC15, 2.5 μg/ml, read-out: % cytotox",3%
same,cytotoxicity at 5 µg/mL,"[3]; SCC-15, SCC15, 5 μg/ml, read-out: % cytotox",0%
same,cytotoxicity at 10 µg/mL,"[3]; SCC-15, SCC15, 10 μg/ml, read-out: % cytotox",0%
same,cytotoxicity at 20 µg/mL,"[3]; SCC-15, SCC15, 20 μg/ml, read-out: % cytotox",8%
same,cytotoxicity at 25 µg/mL,"[3]; SCC-15, SCC15, 25 μg/ml, read-out: % cytotox",23%
same,cytotoxicity at 5 µg/mL,"[4]; SCC-4, SCC4, 5 μg/ml, read-out: % cytotox",52%
same,cytotoxicity at 10 µg/mL,"[4]; SCC-4, SCC4, 10 μg/ml, read-out: % cytotox",60%
same,cytotoxicity at 20 µg/mL,"[4]; SCC-4, SCC4, 20 μg/ml, read-out: % cytotox",60%
same,cytotoxicity at 40 µg/mL,"[4]; SCC-4, SCC4, 40 μg/ml, read-out: % cytotox",60%
same,cytotoxicity at 50 µg/mL,"[4]; SCC-4, SCC4, 50 μg/ml, read-out: % cytotox",40%
same,cytotoxicity at 0.8 µg/mL,"[6]; SK-BR-3, SK-BR3, 0.8 μg/ml, read-out: % cytotox",40%
same,cytotoxicity at 6.2 µg/mL,"[6]; SK-BR-3, SK-BR3, 6.2 μg/ml, read-out: % cytotox",50%
same,cytotoxicity at 12.5 µg/mL,"[6]; SK-BR-3, SK-BR3, 12.5 μg/ml, read-out: % cytotox",40%
same,cytotoxicity at 25 µg/mL,"[6]; SK-BR-3, SK-BR3, 25 μg/ml, read-out: % cytotox",50%
same,cytotoxicity at 2.5 μg/ml,"[8]; OKF6, 2.5 μg/ml",26%
same,cytotoxicity at 5 μg/ml,"[8]; OKF6, 5 μg/ml",41%
same,cytotoxicity at 10 μg/ml,"[8]; OKF6, 10 μg/ml",54%
same,cytotoxicity at 20 μg/ml,"[8]; OKF6, 20 μg/ml",48%
same,cytotoxicity at 25 μg/ml,"[8]; OKF6, 25 μg/ml",75%
